From patent publication US10098900B2, “Pharmaceutical compositions and their use for treatment of cancer and autoimmune diseases” (ZHEJIANG DTRM BIOPHARMA CO. LTD., priority 2015, dated 2018)
Marks after values point to notes of the source that are not given here.

Assays:
[1] = 28-day toxicity/toxicokinetic (TK) study in rats
Description: Toxicity and toxicokinetic (TK) studies of the compounds can be performed by well known methods.

WSU-DLCL2 xenograft = test: Inhibition of tumor growth in vivo, resistant WSU-DLCL2 SCID mouse model; details: for Antitumor effect (%): WSU-DLCL2, Oral, BID
Description: (§1) Inhibition Study of Tumor Growth In Vivo:
SCID mice or nude mice (weighing about 18 g at the beginning of the experiment) were randomly divided into groups by the software in order to achieve close average weights between groups and control the bias within the allowable range. The mice were injected BTK cell lines (TMD-8, WSU-DLCL2 and DoHH-2) for tumor formation. […] Body weights and tumor volume were recorded.
(§2) Xenograft Tumor Models Inoculated with TMD-8, or DoHH2, or WSU-DLCL2 Tumor Cell Lines:
(§3) TMD-8 is a sensitive human diffuse large B-cell lymphoma cell line, and DoHH2 is a more difficult to treat human follicular lymphoma cell line, while WSU-DLCL2 is a multi-drug resistant (MDR) human non-Hodgkin's lymphoma cell line.
The TMD-8, DoHH2, WSU-DLCL2 tumor cells were maintained in vitro as a suspension culture in RPMI-1640 medium supplemented with 10% heat inactivated fetal calf serum at 37° C. in an atmosphere of 5% CO2 in air. The tumor cells were routinely subcultured twice weekly. The cells growing in an exponential growth phase were harvested and counted for tumor inoculation. Each mouse was inoculated subcutaneously at the right flank with the tumor cells (10×10^6) in 0.2 ml of PBS with Matrigel (1:1) for tumor development. The treatments were started after the average tumor size reached approximately 100-200 mm^3. Each group consisted of 6-10 tumor-bearing mice. […] Animal body weight and tumor volume were measured every 2- or 3-days throughout the treatment.

[2] = system: resistant WSU-DLCL2 cell line; test: Inhibition assay of tumor cell activity (cell viability), WSU-DLCL2; format: cell-based; details: Homo sapiens, WSUDLCL2, individual compound, read-out: Inh % on resistant WSU-DLCL2 cell line (AVG)
Description: (§4) Inhibition Assay of Tumor Cell Activity:
(§5) Tumor cells (TMD-8, DoHH2 and WSU-DLCL2) were transferred and attached to 96-well plates. After one night, blank buffer and selected concentrations (0.01 nM-100 μM) of the test compound solution were added. After 48 hours incubation, CellTiter-Go was added to lyse the cells. Recording luminescent signal and calculate the percent inhibition of cell viability

[3] = 28-day toxicity/toxicokinetic (TK) study in dogs; format: in vivo, dog
[4] = system: collagen induced arthritis; test: Collagen-induced arthritis (CIA) model in male DBA/1 mice (clinical score, histopathology); format: in vivo, mouse; design: Clinical Score (Mean) / Pathological score (Mean ± SEM), Inflammatory cell infiltration / Pathological score (Mean ± SEM), Pannus growth / Pathological score (Mean ± SEM), Cartilage injury / Pathological score (Mean ± SEM), Bone resorption / Pathological score (Mean ± SEM), Total: scale not given here
Description: Collagen-Induced Arthritis (CIA) Model: The combination of Compounds 3 and 12 was evaluated in collagen induced arthritis (CIA) mouse model in Male DBA/1 mice. The animals were divided into 8 groups, including a normal, a vehicle, […] treatment groups: […] On the same day, immunized mice were randomly divided into 7 groups: […] The treatments were given orally for 2 consecutive weeks. Body weight and clinical score were monitored through the study (recorded three times a week started after second immunization). At the end of the study, animals were euthanized and both hind paws were collected for histopathology analysis.

TMD-8 cell line = test: Inhibition assay of tumor cell activity (cell viability), TMD-8; format: cell-based, human; details: individual compound; for Inh % on TMD-8 cell line (AVG): 48 h
Description: as §4, §5

DoHH-2 cell line = test: Inhibition assay of tumor cell activity (cell viability), DoHH-2; format: cell-based; details: Homo sapiens, individual compound, read-out: Inh % on DoHH-2 cell line (AVG)
Description: as §4, §5

[5] = system: DoHH-2 lymphoma xenograft; test: Inhibition of tumor growth in vivo, DoHH-2 lymphoma xenograft SCID mouse model; details: BID, 21 days
Description: as §1
SCID mice or nude mice (weighing about 18 g at the beginning of the experiment) were randomly divided into groups by the software in order to achieve close average weights between groups and control the bias within the allowable range. The mice were injected BTK cell lines (TMD-8, WSU-DLCL2 and DoHH-2) for tumor formation. Inhibitors were administered orally once or twice a day, a total of 14 days, 21 days or 28 days. Body weights and tumor volume were recorded.
as §2
as §3, with “line. Drug combination therapies provide better efficacies in all three tumor models than single targeted agent alone.” for “line.”
The TMD-8, DoHH2, WSU-DLCL2 tumor cells were maintained in vitro as a suspension culture in RPMI-1640 medium supplemented with 10% heat inactivated fetal calf serum at 37° C. in an atmosphere of 5% CO2 in air. The tumor cells were routinely subcultured twice weekly. The cells growing in an exponential growth phase were harvested and counted for tumor inoculation. Each mouse was inoculated subcutaneously at the right flank with the tumor cells (10×10^6) in 0.2 ml of PBS with Matrigel (1:1) for tumor development. The treatments were started after the average tumor size reached approximately 100-200 mm^3. Each group consisted of 6-10 tumor-bearing mice. The testing article (vehicle, compound or combination) was orally administrated to the mice according to the predetermined doses for 14-days or 21-days. Animal body weight and tumor volume were measured every 2- or 3-days throughout the treatment.

[6] = CIA study, Left hind paw, 3 alone, 1.5 mg/kg QD
[7] = CIA study, Right hind paw, 3 alone, 1.5 mg/kg QD

C=CC(=O)N1CC[C@@H](n2nc(-c3ccc(Oc4c(F)c(F)cc(F)c4F)cc3F)c3c(N)ncnc32)C1 [Compound 3, 1-((R)-3-(4-amino-3-(2-fluoro-4-(2,3,5,6-tetrafluorophenoxy)phenyl)-1H-pyrazolo[3,4-d]pyrimidin-1-yl)pyrrolidin-1-yl)prop-2-en-1-one]
difference in drug exposure between Day 1 and Day 28 ([1]; 28-day rat and dog studies): no significant difference | difference in drug exposure between male and female ([1]; 28-day rat and dog studies): no significant difference | AUC compared with ibrutinib ([1]; rats): significantly higher | Antitumor effect (%) (WSU-DLCL2 xenograft; FIG. 8, 28 days, 10 mg/kg): 22% | Antitumor effect (%) (WSU-DLCL2 xenograft; FIG. 8, 28 days, 30 mg/kg): 30% | Antitumor effect (%) (WSU-DLCL2 xenograft; FIG. 8, 28 days, 45 mg/kg): 32% | Antitumor effect (%) (WSU-DLCL2 xenograft; FIG. 9, 18 days, 5 mg/kg): 4% | Antitumor effect (%) (WSU-DLCL2 xenograft; FIG. 9, 18 days, 10 mg/kg): 7% | Antitumor effect (%) (WSU-DLCL2 xenograft; FIG. 9, 18 days, 30 mg/kg): 23% | efficacy / tumor growth (WSU-DLCL2 xenograft; WSU-DLCL2 mice model, FIGS. 8 and 9, triple combination at total 21 mg/kg/day): in line with the efficacy of Ibrutinib | inhibition at 0.01 µM ([2]; 0.01 uM): -10.1% | inhibition at 0.1 µM ([2]; 0.1 uM): -1.36% | inhibition at 1 µM ([2]; 1 uM): 41% | AUC compared with ibrutinib [3]: significantly higher | Cmax ([3]; 15 mg/kg/day, Day 1, Female): 685 ± 212 ng/mL | effect on clinical score ([4]; CIA mice model, FIG. 15): absent | Pathological score (Mean ± SEM), Total ([4]; CIA study, 3 alone, 1.5 mg/kg QD): 3.90 ± 1.80 | Pathological score (Mean ± SEM), Bone resorption [4, 6]: 0.60 ± 0.13 | Pathological score (Mean ± SEM), Cartilage injury [4, 6]: 0.80 ± 0.47 | Pathological score (Mean ± SEM), Inflammatory cell infiltration [4, 6]: 1.00 ± 0.47 | Pathological score (Mean ± SEM), Pannus growth [4, 6]: 0.80 ± 0.47 | Pathological score (Mean ± SEM), Bone resorption [4, 7]: 0.10 ± 0.10 | Pathological score (Mean ± SEM), Cartilage injury [4, 7]: 0.20 ± 0.20 | Pathological score (Mean ± SEM), Inflammatory cell infiltration [4, 7]: 0.20 ± 0.20 | Pathological score (Mean ± SEM), Pannus growth [4, 7]: 0.20 ± 0.20 | Clinical Score (Mean) ([4]; CIA study, day 21, 3 alone, 1.5 mg/kg QD): 0.00 | Clinical Score (Mean) ([4]; CIA study, day 32, 3 alone, 1.5 mg/kg QD): 2.60 | Clinical Score (Mean) ([4]; CIA study, day 39, 3 alone, 1.5 mg/kg QD): 4.20*** | Clinical Score (Mean) ([4]; CIA study, day 42, 3 alone, 1.5 mg/kg QD): 4.00*** | inhibition at 0.01 µM (TMD-8 cell line; Homo sapiens, TMD8, 48 h, 0.01 uM (10 nM), read-out: Inh % on TMD-8 cell line (AVG)): 46.1% | inhibition at 0.1 µM (TMD-8 cell line; Homo sapiens, TMD8, 48 h, 0.1 uM (100 nM), read-out: Inh % on TMD-8 cell line (AVG)): 59.6% | inhibition at 1 µM (TMD-8 cell line; Homo sapiens, TMD8, 48 h, 1 uM (1,000 nM), read-out: Inh % on TMD-8 cell line (AVG)): 61.7% | inhibition at 10 µM (TMD-8 cell line; Homo sapiens, TMD8, 48 h, 10 uM, read-out: Inh % on TMD-8 cell line (AVG)): 74.9% | inhibition at 100 µM (TMD-8 cell line; Homo sapiens, TMD8, 48 h, 100 uM, read-out: Inh % on TMD-8 cell line (AVG)): 99.7% | Inh % on TMD-8 cell line (AVG) (TMD-8 cell line; 0.01 uM (10 nM)): 51.66% | Inh % on TMD-8 cell line (AVG) (TMD-8 cell line; 0.1 uM (100 nM)): 52.40% | Inh % on TMD-8 cell line (AVG) (TMD-8 cell line; 1 uM (1,000 nM)): 55.05% | inhibition at 0.01 µM (DoHH-2 cell line; 0.01 uM): 15.6% | inhibition at 0.1 µM (DoHH-2 cell line; 0.1 uM): 34.8% | inhibition at 1 µM (DoHH-2 cell line; 1 uM): 49.9% | Antitumor effect (%) ([5]; FIG. 6, Oral, 5 mg/kg): 28.8% | Antitumor effect (%) ([5]; FIG. 6, Oral, 10 mg/kg): 20.1% | Antitumor effect (%) ([5]; FIG. 6, Oral, 30 mg/kg): 35.6% | Antitumor effect (%) ([5]; FIG. 7, Oral, 5 mg/kg): 15.9%
